According to US4892883A, “Pharmaceutical compositions containing bilobalide for the treatment of neuropathies Ai” (Willman - Schwabe GmbH & Co., priority 1973, dated 1990):
Where two headings read alike, the source gives them in different places.

Tests used:
[1] = system: spontaneous climbing behaviour (SCB) of mice; assay: Spontaneous climbing behaviour (SCB) of mice (Table X); format: in vivo, mouse (NMRI); settings: for influence of antagonists on the SCB activity of extract and Physostigmine: Scopolamine, Sulpiride, Naloxone, other receptor antagonists; for Mean climbing score, animal: M ± SD
Protocol: In one of these experiments the influence of the extract on the spontaneous climbing behaviour (SCB) was examined according to the method described by Marcais et al. (Psychopharmacology; 56, 233-234, 1978).
*The substances were applied 20 min before the observation period (30
min). In the combination experiments, the second substance was
administered 5 min before the first substance.

[2] = system: Oxotremorine induced hypothermia, tremor and salivation in mice; assay: Oxotremorine induced hypothermia, tremor and salivation (Table XIII); format: in vivo, mouse (NMRI); settings: for Hypothermia: M ± SD
Protocol: (§1) The analgesia tests were carried out according to the hotplate test (J. Pharm. Pharmacol., 9, 381, 1957) and the tests for hypothermia, tremor and salivation according to the method described by Gouret (J. Pharmacol., 4, 105-128, 1973). Subsequently, the mice were treated with extract and Physostigmine etc., in a manner similar to the method described above in connection with the hypoxia tests.

mice [3] = assay: Influence on anti-hypoxic effects of Pilocarpine and Physostigmine (Table XI); format: in vivo, mouse (NMRI); settings: for Survival time, treated animals: M ± SEM
Protocol: The protective actions of the extract against hypoxia were compared in a Hypobare-Hypoxia model, according to a method described by Nakanishi et al (Life Sci 13, 467-478, 1973). 4 mice (2 control animals and 2 treated animals) were put into a vacuum desiccator (3.51). A negative pressure of 170 mmHg was generated therein within 20 sec. The survival times of the animals under these hypoxia conditions were determined. The test substance was administered intraperitoneally in an aqueous solution 30 min before the experiment began. The control animals were only treated with solvents. The maximum observation period of the survival times was 8 min. The survival time of the treated animals tolerating the hypoxia condition longer than this period was assumed to be 480 sec. None of the control animals survived longer than 180 sec. The percentage of the treated animals surviving longer than 3 min was defined as %-effect of the extract.
The anti-hypoxic effects of the cholinomimetics Pilocarpine and the acetylcholine-esterase inhibitor Physostigmine entering the brain are known. […] The method applied for these experiments was similar to the above-described Hypobare-Hypoxia model. Groups of mice were treated orally with an aqueous suspension of the extract (or with water). Pilocarpine and Physostigmine, respectively (or water) were administered 30 min later. The hypoxia tests were carried out 30 min after the second application.

mice [4] = assay: Analgetic effect, hotplate test (Table XII); format: in vivo, mouse (NMRI); settings: for Latent period: M ± SD
Protocol: as §1
A The percentage of animals having a latent period of more than 60 sec.

brain and nerves [5] = settings: brain of many species, including humans; cited from earlier work
brain and nerves [6] = settings: brain of various species; cited from earlier work
[7] = Test 1, Physostigmine 0.1 mg/kg s.c.
[8] = Test 1, Physostigmine 0.2 mg/kg s.c.

For C=CCN1CC[C@]23c4c5ccc(O)c4O[C@H]2C(=O)CC[C@@]3(O)[C@H]1C5 [Naloxone], which “influence of antagonists on the SCB activity of extract and Physostigmine” value (shortened to “influence of antagonists”) [1] is on record?
Its value is “do not influence the effects of Physostigmine and the extract”.

For O=C1CCCN1CC#CCN1CCCC1 [Oxotremorine], which Salivation ([2]; Oxotremorine 0.1 mg/kg i.p.) is on record?
Its Salivation is 60%.

What about the Tremor ([2]; Oxotremorine 0.1 mg/kg i.p.) of the same compound?
The Tremor was 0%.

What about the Hypothermia ([2]; Oxotremorine 0.1 mg/kg i.p.) of the same compound?
The Hypothermia was 2.5 ± 0.82 °C.

And the Salivation ([2]; Oxotremorine 0.2 mg/kg i.p.)?
The Salivation was 100%.

What about the Tremor ([2]; Oxotremorine 0.2 mg/kg i.p.) of the same compound?
Its Tremor is 50%.

What about the Hypothermia ([2]; Oxotremorine 0.2 mg/kg i.p.) of the same compound?
Its Hypothermia is 5.23 ± 1.19 °C.

Which “influence of antagonists” value [1] does the source give for CNC(=O)Oc1ccc2c(c1)[C@]1(C)CCN(C)[C@@H]1N2C [Physostigmine] here?
The value was “inhibited only by specific anti-cholinergic agents entering the brain, such as Scopolamine and not influenced by antagonists to other receptors”.

And the “Mean climbing score, animal” value ([1]; Test II, 0.10 mg/kg s.c.)?
The value was 1.39 ± 0.92.

And the “Mean climbing score, animal” value ([1]; Test III, 0.025 mg/kg s.c.)?
Its value is 5.75 ± 1.28.

And the “Mean climbing score, animal” value ([1]; Test III, 0.05 mg/kg s.c.)?
Its value is 3.88 ± 2.23.

What about the “influence on SCB of mice” value ([1]; words) of the same compound?
Its value is “reduces the SCB of mice”.

What about the “% effect” value (mice [3]; Physostigmine 0.2 mg/kg i.p.) of the same compound?
Its value is 20%.

And the “Survival time, treated animals” value (mice [3]; Physostigmine 0.2 mg/kg i.p., control 80.6 ± 9.64)?
Its value is 190.63 ± 26.2 s.

And the “% effect (animals with latent period of more than 60 sec)” value (mice [4]; [7])?
Its value is 10%.

What about the Latent period (mice [4]; [7]) of the same compound?
The Latent period was 31.1 ± 13.9 s.

And the “% effect (animals with latent period of more than 60 sec)” value (mice [4]; [8])?
The value was 50%.

What about the Latent period (mice [4]; [8]) of the same compound?
Its Latent period is 44.1 ± 17.69 s.

For CC[C@@H]1C(=O)OC[C@@H]1Cc1cncn1C [Pilocarpine], which “% effect” value (mice [3]; Pilocarpine 2 mg/kg i.p.) is on record?
The value was 30%.

And the “Survival time, treated animals” value (mice [3]; Pilocarpine 2 mg/kg i.p., control 86.7 ± 6.82)?
The value was 178.6 ± 24.8 s.

And the “% effect (animals with latent period of more than 60 sec)” value (mice [4]; Test 2, Pilocarpine 5 mg/kg s.c.)?
The value was 10%.

What about the Latent period (mice [4]; Test 2, Pilocarpine 5 mg/kg s.c., control 15.74 ± 3.47) of the same compound?
Its Latent period is 24.9 ± 13.32 s.

For CN1[C@@H]2C[C@@H](OC(=O)[C@H](CO)c3ccccc3)C[C@H]1[C@@H]1O[C@@H]12 [Scopolamine], which “Mean climbing score, animal” value ([1]; Test II, 0.25 mg/kg i.p.) is on record?
Its value is 6.63 ± 1.42.

For CCN1CCCC1CNC(=O)c1cc(S(N)(=O)=O)ccc1OC (centres unmarked) [Sulpiride], which “influence of antagonists” value [1] is on record?
Its value is “do not influence the effects of Physostigmine and the extract”.

With Oc1c(Cl)cc(Cl)c(Cl)c1Cc1c(O)c(Cl)cc(Cl)c1Cl [hexachlorophene, 2,2'-methylene-bis(3,4,6-trichlorophenol)] as the compound, how does the neurotoxic effect (brain and nerves [5]) read?
Its neurotoxic effect is “produces oedematous damage in the brain of many species, including humans”.

Which neurotoxic effect (brain and nerves [6]) does the source give for C[CH2][Sn]([Cl])([CH2]C)[CH2]C [triethyltin chloride] here?
Its neurotoxic effect is “brings about an increase in the water content in the brain of various species and induces specific myelopathy in the nerves”.
